{
  "source": "the supplement of paper PMC10307832",
  "experiment_in_all_cases": "relative viability (nuclei count vs DMSO), 5 days (fraction); higher = more cells survive",
  "key": {"Dasatinib + Olaparib": {"compound": "Cc1nc(Nc2ncc(C(=O)Nc3c(C)cccc3Cl)s2)cc(N2CCN(CCO)CC2)n1 [Dasatinib] + O=C(c1cc(Cc2n[nH]c(=O)c3ccccc23)ccc1F)N1CCN(C(=O)C2CC2)CC1 [Olaparib] (partner 8 µM)", "summary_of_the_method": "(§1)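 A single step with final 0.05% Triton X-100, 1% formaldehyde and 1 ug/ml Hoechst fixed the cells and stained nuclei 5 days after treatment. Lung cancer cell lines in 1536-well plates had been treated by pin tool the day after seeding with one drug alone or a fixed anchor-drug dose plus five library-drug doses (not always all listed) in √10 steps, and nuclei were counted on 4× images. Relative viability is the ratio of nuclei in treated wells to nuclei in vehicle wells, taken as the median of duplicate plates.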"}, "Dasatinib + Linsitinib": {"compound": "Cc1nc(Nc2ncc(C(=O)Nc3c(C)cccc3Cl)s2)cc(N2CCN(CCO)CC2)n1 [Dasatinib] + C[C@]1(O)C[C@@H](c2nc(-c3ccc4ccc(-c5ccccc5)nc4c3)c3c(N)nccn32)C1 [Linsitinib] (partner 1 µM)", "summary_of_the_method": "as §1"}, "Dasatinib + OSI-027": {"compound": "Cc1nc(Nc2ncc(C(=O)Nc3c(C)cccc3Cl)s2)cc(N2CCN(CCO)CC2)n1 [Dasatinib] + COc1cccc2cc(-c3nc([C@H]4CC[C@H](C(=O)O)CC4)n4ncnc(N)c34)[nH]c12 [OSI-027] (partner 0.5 µM)", "summary_of_the_method": "as §1"}, "XMD13-2 + Tozasertib": {"compound": "C1CC1C(=O)NC2=NNC3=C2C=CC(=C3)C4=CC(=CC=C4)C(=O)NC5CC5 [XMD13-2] + Cc1cc(Nc2cc(N3CCN(C)CC3)nc(Sc3ccc(NC(=O)C4CC4)cc3)n2)n[nH]1 [Tozasertib] (partner 0.1 µM)", "summary_of_the_method": "as §1"}},
  "data": [
    {"cell line": "UMC-11", "values": [
      {"measurement": "relative viability", "setting": "Dasatinib + Olaparib; first compound 0.005 µM", "result": 0.542},
      {"measurement": "relative viability", "setting": "Dasatinib + Olaparib; first compound 0.01581 µM", "result": 0.377},
      {"measurement": "relative viability", "setting": "Dasatinib + Olaparib; first compound 0.05 µM", "result": 0.427},
      {"measurement": "relative viability", "setting": "Dasatinib + Olaparib; first compound 0.1581 µM", "result": 0.272},
      {"measurement": "relative viability", "setting": "Dasatinib + Olaparib; first compound 0.5 µM", "result": 0.247},
      {"measurement": "relative viability", "setting": "Dasatinib + Linsitinib; first compound 0.005 µM", "result": 0.911},
      {"measurement": "relative viability", "setting": "Dasatinib + Linsitinib; first compound 0.01581 µM", "result": 0.827},
      {"measurement": "relative viability", "setting": "Dasatinib + Linsitinib; first compound 0.05 µM", "result": 0.543},
      {"measurement": "relative viability", "setting": "Dasatinib + Linsitinib; first compound 0.1581 µM", "result": 0.342},
      {"measurement": "relative viability", "setting": "Dasatinib + Linsitinib; first compound 0.5 µM", "result": 0.319},
      {"measurement": "relative viability", "setting": "Dasatinib + OSI-027; first compound 0.005 µM", "result": 0.459},
      {"measurement": "relative viability", "setting": "Dasatinib + OSI-027; first compound 0.01581 µM", "result": 0.375},
      {"measurement": "relative viability", "setting": "Dasatinib + OSI-027; first compound 0.05 µM", "result": 0.413},
      {"measurement": "relative viability", "setting": "Dasatinib + OSI-027; first compound 0.1581 µM", "result": 0.329},
      {"measurement": "relative viability", "setting": "Dasatinib + OSI-027; first compound 0.5 µM", "result": 0.264},
      {"measurement": "relative viability", "setting": "XMD13-2 + Tozasertib; first compound 0.05 µM", "result": 0.188},
      {"measurement": "relative viability", "setting": "XMD13-2 + Tozasertib; first compound 0.1581 µM", "result": 0.197},
      {"measurement": "relative viability", "setting": "XMD13-2 + Tozasertib; first compound 0.5 µM", "result": 0.197},
      {"measurement": "relative viability", "setting": "XMD13-2 + Tozasertib; first compound 1.581 µM", "result": 0.204},
      {"measurement": "relative viability", "setting": "XMD13-2 + Tozasertib; first compound 5 µM", "result": 0.192}
    ]}
  ]
}
